Data from US20230265116A1, “DEGRADATION OF (EGFR) BY CONJUGATION OF EGFR INHIBITORS WITH E3 LIGASE LIGAND AND METHODS OF USE” (BEIGENE, LTD., priority 2020, published 2023).
Where two headings read alike, the source gives them in different places.

How the values were obtained:
[1] = target: T1, EGFR L858R/T790M/C797S (BaF3-LTC cells) (Homo sapiens, UniProt P00533, C797S/L858R/T790M); assay: EGFR degradation HTRF assay, BaF3-LTC cells; format: cell-based
T1 construct: expressed in transfected cells; host or cells: BaF3
Method in brief: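 EGFR remaining after a 16 h, 37 °C exposure (8 doses, 5-fold steps from 10 uM final, 0.2% DMSO) was quantified by HTRF antibodies in cell lysate. Percent inhibition relative to DMSO control was fitted by four-parameter logistic to give DC50; Dmax denotes maximal degradation.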

[2] = test system: EGFR Del19/T790M/C797S (H1975-clone #28); assay: EGFR degradation HTRF assay, H1975-clone #28 DTC cells; format: cell-based
Method in brief: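 H1975 clones stably overexpressing mutant EGFR, with endogenous EGFR knocked out by sgRNA and homozygosity confirmed by sequencing, were treated 16h at 37° C. with compounds in 0.2% DMSO (top final 10 uM, 5-fold, 8 doses). Lysates were read by HTRF (665/620 nm); DC50 and Dmax came from fitting % degradation versus DMSO control.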

[3] = BaF3-LTC cells; EGFR degradation, IC50 (DC50) from curve fit; read-out: DC50(nM) BaF3-LTC
[4] = BaF3-LTC cells; maximum percentage of inhibition (degradation); read-out: Dmax (%) BaF3-LTC
[5] = H1975 # 28 DTC cells; EGFR degradation, IC50 (DC50) from curve fit; read-out: DC50(nM) H1975 # 28 DTC
[6] = H1975 # 28 DTC cells; maximum percentage of inhibition (degradation)

T1 sequence (P00533 25-1210 T790M/C797S/L858R): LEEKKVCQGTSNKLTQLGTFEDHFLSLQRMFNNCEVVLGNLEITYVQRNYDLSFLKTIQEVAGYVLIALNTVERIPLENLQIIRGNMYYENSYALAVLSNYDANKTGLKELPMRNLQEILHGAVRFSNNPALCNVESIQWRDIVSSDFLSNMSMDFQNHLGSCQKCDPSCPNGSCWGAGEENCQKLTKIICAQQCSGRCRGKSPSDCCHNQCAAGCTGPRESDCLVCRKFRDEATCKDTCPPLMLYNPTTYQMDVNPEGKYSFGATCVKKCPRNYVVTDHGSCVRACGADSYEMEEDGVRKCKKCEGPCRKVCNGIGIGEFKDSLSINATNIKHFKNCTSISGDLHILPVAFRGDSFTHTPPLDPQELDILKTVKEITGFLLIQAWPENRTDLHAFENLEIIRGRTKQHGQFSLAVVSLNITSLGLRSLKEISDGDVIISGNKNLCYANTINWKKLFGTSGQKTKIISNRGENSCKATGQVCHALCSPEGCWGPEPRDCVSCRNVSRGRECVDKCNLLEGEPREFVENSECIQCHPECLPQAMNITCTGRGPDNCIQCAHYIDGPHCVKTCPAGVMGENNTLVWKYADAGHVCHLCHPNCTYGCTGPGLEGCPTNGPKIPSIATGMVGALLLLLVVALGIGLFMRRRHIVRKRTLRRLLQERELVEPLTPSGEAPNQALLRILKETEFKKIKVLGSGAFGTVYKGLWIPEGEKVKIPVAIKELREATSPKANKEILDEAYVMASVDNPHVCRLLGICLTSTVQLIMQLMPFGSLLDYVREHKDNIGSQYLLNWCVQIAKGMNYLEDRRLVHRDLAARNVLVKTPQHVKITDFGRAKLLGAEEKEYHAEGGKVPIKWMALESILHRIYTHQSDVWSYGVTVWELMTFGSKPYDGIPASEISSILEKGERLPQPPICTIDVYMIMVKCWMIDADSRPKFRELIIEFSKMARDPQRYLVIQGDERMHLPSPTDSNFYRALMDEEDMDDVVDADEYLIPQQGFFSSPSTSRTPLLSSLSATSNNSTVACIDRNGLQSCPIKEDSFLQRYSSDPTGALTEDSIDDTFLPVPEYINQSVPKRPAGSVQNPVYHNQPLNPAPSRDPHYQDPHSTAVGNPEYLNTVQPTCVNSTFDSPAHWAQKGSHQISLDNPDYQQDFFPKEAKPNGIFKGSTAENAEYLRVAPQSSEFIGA

Compound	DC50 [1, 3]	Dmax [1, 4]	DC50 [2, 5]	Dmax (%) H1975 # 28 DTC [2, 6]	DC50 ([1]; read-out: DC50(nM) BaF3-LTC; BaF3-LTC cells; EGFR degradation, IC50 (DC50) from curve fit)	Dmax ([1]; read-out: Dmax (%) BaF3-LTC, BaF3-LTC cells; maximum percentage of inhibition (degradation))	DC50 ([2]; read-out: DC50(nM) H1975 # 28 DTC; H1975 # 28 DTC cells; EGFR degradation, IC50 (DC50) from curve fit)
CCc1cc(Nc2ncc(Br)c(Nc3ccc4nc(C)ccc4c3P(C)(C)=O)n2)c(OC2CC2)cc1N1CCC(N2CCN(CCc3cccc4c3n(C)c(=O)n4C3CCC(=O)NC3=O)CC2)CC1 (stereo not shown) [Example 642, 3-(4-(2-(4-(1-(4-((5-bromo-4-((5-(dimethylphosphoryl)-2-methylquinolin-6-yl)amino)pyrimidin-2-yl)amino)-5-cyclopropoxy-2-ethylphenyl)piperidin-4-yl)piperazin-1-yl)ethyl)-3-methyl-2-oxo-2,3-dihydro-1H-benzo[d]imidazol-1-yl)piperidine-2,6-dione]	1.42 nM	93.7%	0.617 nM	76.78%	–	–	–
CCOc1cc(N2CCC(N3CCN(CCc4cccc5c4oc(=O)n5C4CCC(=O)NC4=O)CC3)CC2)c(CC)cc1Nc1ncc(Br)c(Nc2ccc3c(=O)n(CC)ncc3c2P(C)(C)=O)n1 (stereo not shown) [Example 644, 3-(7-(2-(4-(1-(4-((5-bromo-4-((5-(dimethylphosphoryl)-2-ethyl-1-oxo-1,2-dihydrophthalazin-6-yl)amino)pyrimidin-2-yl)amino)-5-ethoxy-2-ethylphenyl)piperidin-4-yl)piperazin-1-yl)ethyl)-2-oxobenzo[d]oxazol-3(2H)-yl)piperidine-2,6-dione]	5.12 nM	92.6%	0.829 nM	86.29%	–	–	–
CCOc1cc(N2CCC(N3CCN(CC4CN(c5cccc6c5oc(=O)n6C5CCC(=O)NC5=O)C4)CC3)CC2)c(CC)cc1Nc1ncc(Br)c(Nc2ccc3c(=O)n(CC)ncc3c2P(C)(C)=O)n1 (stereo not shown) [Example 645, 3-(7-(3-((4-(1-(4-((5-bromo-4-((5-(dimethylphosphoryl)-2-ethyl-1-oxo-1,2-dihydrophthalazin-6-yl)amino)pyrimidin-2-yl)amino)-5-ethoxy-2-ethylphenyl)piperidin-4-yl)piperazin-1-yl)methyl)azetidin-1-yl)-2-oxobenzo[d]oxazol-3(2H)-yl)piperidine-2,6-dione]	22.7 nM	95.8%	6.2 nM	84.26%	–	–	–
CCc1ncc2c(P(C)(C)=O)c(Nc3nc(Nc4cc(CC)c(N5CCC(N6CCN(C(=O)Cc7ccc8c(c7)oc(=O)n8C7CCC(=O)NC7=O)CC6)CC5)cc4OC)ncc3Br)ccc2n1 (stereo not shown) [Example 646, 3-(6-(2-(4-(1-(4-((5-bromo-4-((5-(dimethylphosphoryl)-2-ethylquinazolin-6-yl)amino)pyrimidin-2-yl)amino)-2-ethyl-5-methoxyphenyl)piperidin-4-yl)piperazin-1-yl)-2-oxoethyl)-2-oxobenzo[d]oxazol-3(2H)-yl)piperidine-2,6-dione]	–	–	–	74.64%	6.2 nM	94.5%	0.627 nM
CCOc1cc(N2CCC(N3CCN(CCc4c(F)ccc5c4C(C)(C)C(=O)N5C4CCC(=O)NC4=O)CC3)CC2)c(CC)cc1Nc1ncc(Br)c(Nc2ccc3nc(CC)ccc3c2P(C)(C)=O)n1 (stereo not shown) [Example 647, 3-(4-(2-(4-(1-(4-((5-bromo-4-((5-(dimethylphosphoryl)-2-ethylquinolin-6-yl)amino)pyrimidin-2-yl)amino)-5-ethoxy-2-ethylphenyl)piperidin-4-yl)piperazin-1-yl)ethyl)-5-fluoro-3,3-dimethyl-2-oxoindolin-1-yl)piperidine-2,6-dione]	13.2 nM	93.2%	2 nM	66.66%	–	–	–
CCOc1cc(N2CCC(N3CCN(CCc4c(F)ccc5c4n(C)c(=O)n5C4CCC(=O)NC4=O)CC3)CC2)c(CC)cc1Nc1ncc(Br)c(Nc2ccc3nc(CC)ccc3c2P(C)(C)=O)n1 (stereo not shown) [Example 648, 3-(4-(2-(4-(1-(4-((5-bromo-4-((5-(dimethylphosphoryl)-2-ethylquinolin-6-yl)amino)pyrimidin-2-yl)amino)-5-ethoxy-2-ethylphenyl)piperidin-4-yl)piperazin-1-yl)ethyl)-5-fluoro-3-methyl-2-oxo-2,3-dihydro-1H-benzo[d]imidazol-1-yl)piperidine-2,6-dione]	15.3 nM	95.8%	4.01 nM	81.9%	–	–	–
CCc1ccc2c(P(C)(C)=O)c(Nc3nc(Nc4cc(CC)c(N5CCC(N6CCN(C(=O)[C@@H]7CCN(c8cc(F)c([C@H]9CCC(=O)NC9=O)c(F)c8)C7)CC6)CC5)cc4OC(F)(F)F)ncc3Br)ccc2n1 [Example 649, (R)-3-(4-((R)-3-(4-(1-(4-((5-bromo-4-((5-(dimethylphosphoryl)-2-ethylquinolin-6-yl)amino)pyrimidin-2-yl)amino)-2-ethyl-5-(trifluoromethoxy)phenyl)piperidin-4-yl)piperazine-1-carbonyl)pyrrolidin-1-yl)-2,6-difluorophenyl)piperidine-2,6-dione]	31.8 nM	78.6%	6.94 nM	75.95%	–	–	–
CCc1ccc2c(P(C)(C)=O)c(Nc3nc(Nc4cc(CC)c(N5CCC(N6CCN(CC[C@H]7CCN(c8cc(F)c(C9CCC(=O)NC9=O)c(F)c8)C7)CC6)CC5)cc4OC)ncc3Br)ccc2n1 (stereo partly drawn) [Example 650, 3-(4-((S)-3-(2-(4-(1-(4-((5-bromo-4-((5-(dimethylphosphoryl)-2-ethylquinolin-6-yl)amino)pyrimidin-2-yl)amino)-2-ethyl-5-methoxyphenyl)piperidin-4-yl)piperazin-1-yl)ethyl)pyrrolidin-1-yl)-2,6-difluorophenyl)piperidine-2,6-dione]	16 nM	75%	3.39 nM	59.93%	–	–	–
CCOc1cc(N2CCC(N3CCN(CCc4ccc5c(c4)oc(=O)n5C4CCC(=O)NC4=O)CC3)CC2)c(CC)cc1Nc1ncc(Br)c(Nc2ccc3nc(C)c(F)cc3c2P(C)(C)=O)n1 (stereo not shown) [Example 651, 3-(6-(2-(4-(1-(4-((5-bromo-4-((5-(dimethylphosphoryl)-3-fluoro-2-methylquinolin-6-yl)amino)pyrimidin-2-yl)amino)-5-ethoxy-2-ethylphenyl)piperidin-4-yl)piperazin-1-yl)ethyl)-2-oxobenzo[d]oxazol-3(2H)-yl)piperidine-2,6-dione]	2.13 nM	87.7%	1.17 nM	79.33%	–	–	–
CCc1cc(Nc2ncc(Br)c(Nc3ccc4nc(NC5CC5)ccc4c3P(C)(C)=O)n2)c(OC)cc1N1CCC(N2CCN(C(=O)[C@@H]3CCN(c4cc(F)c([C@H]5CCC(=O)NC5=O)c(F)c4)C3)CC2)CC1 [Example 652, (R)-3-(4-((R)-3-(4-(1-(4-((5-bromo-4-((2-(cyclopropylamino)-5-(dimethylphosphoryl)quinolin-6-yl)amino)pyrimidin-2-yl)amino)-2-ethyl-5-methoxyphenyl)piperidin-4-yl)piperazine-1-carbonyl)pyrrolidin-1-yl)-2,6-difluorophenyl)piperidine-2,6-dione]	5.23 nM	81.1%	1.35 nM	86.65%	–	–	–
CCc1cc(Nc2ncc(Br)c(Nc3ccc4nc(NC5CC5)ccc4c3P(C)(C)=O)n2)c(OC)cc1N1CCC(N2CCN(CCc3cc(F)c([C@H]4CCC(=O)NC4=O)c(F)c3)CC2)CC1 [Example 653, (R)-3-(4-(2-(4-(1-(4-((5-bromo-4-((2-(cyclopropylamino)-5-(dimethylphosphoryl)quinolin-6-yl)amino)pyrimidin-2-yl)amino)-2-ethyl-5-methoxyphenyl)piperidin-4-yl)piperazin-1-yl)ethyl)-2,6-difluorophenyl)piperidine-2,6-dione]	7.19 nM	87.7%	0.7 nM	87.89%	–	–	–
CCc1ccc2c(P(C)(C)=O)c(Nc3nc(Nc4cc(CC)c(N5CCC(N6CCN(CCc7ccc([C@H]8CCC(=O)NC8=O)cc7)CC6)CC5)cc4OC)ncc3Br)ccc2n1 [Example 654, (R)-3-(4-(2-(4-(1-(4-((5-bromo-4-((5-(dimethylphosphoryl)-2-ethylquinolin-6-yl)amino)pyrimidin-2-yl)amino)-2-ethyl-5-methoxyphenyl)piperidin-4-yl)piperazin-1-yl)ethyl)phenyl)piperidine-2,6-dione]	23.2 nM	74.8%	2.08 nM	66.53%	–	–	–
CCc1ccc2c(P(C)(C)=O)c(Nc3nc(Nc4cc(CC)c(N5CCC(N6CCN(C(=O)[C@@H]7CCN(c8cc(F)c([C@H]9CCC(=O)NC9=O)c(F)c8)C7)CC6)CC5)cc4OC4CC4)ncc3Br)ccc2n1 [Example 655, (R)-3-(4-((R)-3-(4-(1-(4-((5-bromo-4-((5-(dimethylphosphoryl)-2-ethylquinolin-6-yl)amino)pyrimidin-2-yl)amino)-5-cyclopropoxy-2-ethylphenyl)piperidin-4-yl)piperazine-1-carbonyl)pyrrolidin-1-yl)-2,6-difluorophenyl)piperidine-2,6-dione]	16.4 nM	90.2%	4.21 nM	81.86%	–	–	–
